Source: publication PMC7024302, “Ultrashort Cationic Lipopeptides–Effect of N-Terminal Amino Acid and Fatty Acid Type on Antimicrobial Activity and Hemolysis” (Molecules, 2020)
In brackets after ≈: the same amount, converted by molar mass. Residues, ends and D or L forms follow the SMILES beside them.

Tests used:
C. albicans ATCC 10231 = type: cell-based, Candida albicans; conditions: ATCC 10231, 24 h, pH 7
From the text: (§1) The Acinetobacter baumannii ATCC BAA-1605, Candida albicans ATCC 10231, Enterococcus faecium ATCC 700221, Klebsiella aerogenes ATCC 13048 (previously known as Enterobacter aerogenes), Klebsiella pneumoniae ATCC 700603, Pseudomonas aeruginosa ATCC 9027, Staphylococcus aureus ATCC 25923 and MRSA ATCC 33591, were acquired from the American Type Culture Collection (ATCC). Before running the tests, beads with cryo-protected microorganisms were transferred into fresh MHB (BioMaxima, Lublin, Poland) for bacteria or RPMI-1640 for fungi and incubated for 24 h at 37 °C. Then, the culture was seeded on the Mueller-Hinton agar (MHA) plates (BioMaxima, Lublin, Poland) for bacteria or Sabouraud dextrose agar (SDA) plates (BioMaxima, Lublin, Poland) for fungi and incubated as just mentioned. Cell densities for all assays were adjusted spectrophotometrically (Multiskan™ GO Microplate Spectrophotometer, Thermo Fisher Scientific, Vantaa, Finland) at 600 nm for bacteria and at 530 nm for fungi.
(§2) The MICs were determined by broth microdilution method according to the Clinical and Laboratory Standard Institute guidelines. For this purpose initial inoculums of bacteria (5 × 10^5 CFU/mL) in MHB (BioMaxima, Lublin, Poland) and fungi (2 × 10^3 CFU/mL) in RPMI-1640 with 2% D-glucose (Merck, Darmstadt, Germany) prepared with MOPS (pH 7.0 ± 0.1 at 25 °C; Merck, Darmstadt, Germany) were exposed to the ranging concentration of lipopeptides (0.5–256 µg/mL) and incubated at 37 °C for 18 h and 24 h respectively. The experiments were conducted on 96-well microtiter polystyrene plates (Kartell, Italy). The MIC was taken as the lowest peptide concentration at which a noticeable growth of microorganisms was inhibited. All experiments were conducted in triplicate.

[1] = tested on: K. pneumoniae ATCC 700603; type: cell-based, Klebsiella pneumoniae; conditions: ATCC 700603, 18 h
From the text: as §1, §2

[2] = tested on: human red blood cells (hRBCs); type: cell-based; conditions: red cells of human, 1 h
Method: The hemolysis assay was performed as described earlier according to the method of Avrahami and Shai. Fresh human red blood cells (hRBCs) with anticoagulant (EDTA) were rinsed three times with a PBS (Merck, Darmstadt, Germany) by centrifugation at 800× g for 10 min and resuspended in PBS. Lipopeptides were serially diluted on 96-well microtiter polystyrene plate and hRBCs were added to reach final volume of 100 µL. Peptide concentration ranged between 0.5 and 256 µg/mL and final hRBCs concentration was 4% (v/v). Controls for zero hemolysis (blank) and 100% hemolysis consisted of hRBCs suspended in PBS and 1% of Triton-X 100 (Merck, Darmstadt, Germany), respectively. The plate was incubated for 1 h at 37 °C and then centrifuged (800× g, 10 min, 4 °C). Subsequently, supernatant was […] to new microtiter plates and absorbance at 540 nm were measured. All experiments were conducted in triplicate. Protocol of the study received approval from the local Bioethics Committee at the Medical University of Gdańsk (NKBBN/262/2019).

P. aeruginosa ATCC 9027 = type: cell-based, Pseudomonas aeruginosa; conditions: ATCC 9027, 18 h
From the text: as §1, §2

[3] = tested on: S. aureus ATCC 33591 (MRSA); type: cell-based, Staphylococcus aureus; conditions: ATCC 33591, 18 h
From the text: as §1, §2

S. aureus ATCC 25923 = type: cell-based, Staphylococcus aureus; conditions: ATCC 25923, 18 h
From the text: as §1, §2

E. faecium ATCC 700221 = type: cell-based, Enterococcus faecium; conditions: ATCC 700221, 18 h
From the text: as §1, §2

K. aerogenes ATCC 13048 = type: cell-based, Klebsiella aerogenes; conditions: ATCC 13048, 18 h
From the text: as §1, §2

[4] = Determination of peptide hydrophobicity with RP-HPLC (adjusted retention time); type: physicochemical; conditions: RP-HPLC C18, linear 10–55% acetonitrile over 60 min, 0.1% TFA, 25.0 °C, UV 214 nm, triplicate; for Adjusted retention time: Table 2, nC = carbon atoms in fatty acid chain; for tR’: Table 3, adjusted retention time as hydrophobicity
Method: To determine peptide hydrophobicity, the Waters Alliance e2695 system with a Waters 2998 PDA Detector (software-Empower®3) was used. All analyses were carried out on a Phenomenex Luna C18(2) column (3.0 × 100 mm, 5 µm particle size, 100 Å pore size). The peptides were dissolved in water (0.1% TFA, v/v) to obtain a concentration of 1 g/L. UV detection at 214 nm was used, and aliquots (10 µL) were eluted with a linear 10–55% acetonitrile gradient in deionized water over 60 min at 25.0 ± 0.1 °C. The mobile phase flow rate was 0.5 mL/min. Both eluents contained 0.1% (v/v) of TFA. Each peptide sample was analyzed in triplicate.

[5] = tested on: A. baumannii ATCC BAA-1605; type: cell-based, Acinetobacter baumannii; conditions: ATCC BAA-1605, 18 h
From the text: as §1, §2

MIC CA (C. albicans ATCC 10231) [µg/mL] | MIC K [1] | HC50 [2] | MIC PA (P. aeruginosa ATCC 9027) [µg/mL] | MIC S [3] [µg/mL] | MIC SA (S. aureus ATCC 25923) | MIC E1 (E. faecium ATCC 700221) | MIC E2 (K. aerogenes ATCC 13048) | Adjusted retention time [4] [min] | tR’ [4] [min] | MIC A [5] [µg/mL] | SMILES
8 (≈ 12.5 µM) | 128 µg/mL (≈ 200 µM) | 43.43 (±0.90) µg/mL | 32 (≈ 49.9 µM) | 8 (≈ 12.5 µM) | 8 µg/mL (≈ 12.5 µM) | 8 µg/mL (≈ 12.5 µM) | 128 µg/mL (≈ 200 µM) |  | 40.80 | 64 (≈ 99.9 µM) | CCCCCCCCCCCCCC(=O)N[C@H](C(=O)N[C@@H](CCCNC(=N)N)C(=O)N[C@@H](CCCNC(=N)N)C(N)=O)[C@@H](C)O [compound 90, C14-TRR-NH2] (HELM PEPTIDE1{[CCCCCCCCCCCCCC(=O)[*:2]].T.R.R.[am]}$$$$V2.0)
4 (≈ 6.26 µM) | 128 µg/mL (≈ 200 µM) | 42.04 (±1.38) µg/mL | 8 (≈ 12.5 µM) | 4 (≈ 6.26 µM) | 4 µg/mL (≈ 6.26 µM) | 4 µg/mL (≈ 6.26 µM) | 128 µg/mL (≈ 200 µM) |  | 44.53 | 64 (≈ 100 µM) | CCCCCCCCCCCCCC(=O)N[C@@H](CCC)C(=O)N[C@@H](CCCNC(=N)N)C(=O)N[C@@H](CCCNC(=N)N)C(N)=O [compound 70, C14-NvaRR-NH2] (HELM PEPTIDE1{[CCCCCCCCCCCCCC(=O)[*:2]].[Nva].R.R.[am]}$$$$V2.0)
128 (≈ 192 µM) | >256 (-) µg/mL | >256 µg/mL | 128 (≈ 192 µM) | 32 (≈ 47.9 µM) | 16 (>16) µg/mL | 16 (>16) µg/mL | >256 (-) µg/mL |  | 30.00 | 256 (≈ 383 µM) | CCCCCCCCCCCC(=O)N[C@@H](CCCNC(=N)N)C(=O)N[C@@H](CCCNC(=N)N)C(=O)N[C@@H](CCCNC(=N)N)C(N)=O [compound 81, C12-RRR-NH2] (HELM PEPTIDE1{[CCCCCCCCCCCC(=O)[*:2]].R.R.R.[am]}$$$$V2.0)
32 (≈ 49.8 µM) | 256 µg/mL (≈ 398 µM) | 206.50 (±9.14) µg/mL | 32 (≈ 49.8 µM) | 16 (≈ 24.9 µM) | 8 µg/mL (≈ 12.4 µM) | 16 µg/mL (≈ 24.9 µM) | 256 µg/mL (≈ 398 µM) |  | 37.95 | 64 (≈ 99.5 µM) | CCCCCCCCCCCC(=O)N[C@@H](CCSC)C(=O)N[C@@H](CCCNC(=N)N)C(=O)N[C@@H](CCCNC(=N)N)C(N)=O [compound 49, C12-MRR-NH2] (HELM PEPTIDE1{[CCCCCCCCCCCC(=O)[*:2]].M.R.R.[am]}$$$$V2.0)
16 (≈ 23 µM) | 128 µg/mL (≈ 184 µM) | 211.32 (±9.57) µg/mL | 32 (≈ 46 µM) | 8 (≈ 11.5 µM) | 4 µg/mL (≈ 5.75 µM) | 8 µg/mL (≈ 11.5 µM) | 128 µg/mL (≈ 184 µM) |  | 36.76 | 128 (≈ 184 µM) | CCCCCCCCCCCCCC(=O)N[C@@H](CCCNC(=N)N)C(=O)N[C@@H](CCCNC(=N)N)C(=O)N[C@@H](CCCNC(=N)N)C(N)=O [compound 82, C14-RRR-NH2] (HELM PEPTIDE1{[CCCCCCCCCCCCCC(=O)[*:2]].R.R.R.[am]}$$$$V2.0)

Second part, the molecule before the results:

SMILES | MIC CA (C. albicans ATCC 10231) [µg/mL] | MIC K [1] | HC50 [2] | MIC PA (P. aeruginosa ATCC 9027) [µg/mL] | MIC S [3] [µg/mL] | MIC SA (S. aureus ATCC 25923) | MIC E1 (E. faecium ATCC 700221) | MIC E2 (K. aerogenes ATCC 13048) | Adjusted retention time [4] [min] | tR’ [4] [min] | MIC A [5] [µg/mL]
CCCCCCCCCCCC(=O)N[C@@H](CC(C)C)C(=O)N[C@@H](CCCNC(=N)N)C(=O)N[C@@H](CCCNC(=N)N)C(N)=O [compound 45, C12-LRR-NH2] (HELM PEPTIDE1{[CCCCCCCCCCCC(=O)[*:2]].L.R.R.[am]}$$$$V2.0) | 16 (≈ 25.6 µM) | 256 µg/mL (≈ 410 µM) | 112.81 (±1.39) µg/mL | 16 (≈ 25.6 µM) | 16 (≈ 25.6 µM) | 8 µg/mL (≈ 12.8 µM) | 16 µg/mL (≈ 25.6 µM) | 256 µg/mL (≈ 410 µM) | 39.821 | 39.82 | 64 (≈ 102 µM)
CCCCCCCCCCCC(=O)N[C@H](C(=O)N[C@@H](CCCNC(=N)N)C(=O)N[C@@H](CCCNC(=N)N)C(N)=O)[C@@H](C)CC [compound 37, C12-IRR-NH2] (HELM PEPTIDE1{[CCCCCCCCCCCC(=O)[*:2]].I.R.R.[am]}$$$$V2.0) | 16 (≈ 25.6 µM) | 256 µg/mL (≈ 410 µM) | 120.40 (±1.55) µg/mL | 16 (≈ 25.6 µM) | 8 (≈ 12.8 µM) | 8 µg/mL (≈ 12.8 µM) | 8 µg/mL (≈ 12.8 µM) | 256 µg/mL (≈ 410 µM) | 39.047 | 39.05 | 64 (≈ 102 µM)
CCCCCCCCCCCCCC(=O)N[C@@H](CCCCN)C(=O)N[C@@H](CCCNC(=N)N)C(=O)N[C@@H](CCCNC(=N)N)C(N)=O [compound 42, C14-KRR-NH2] (HELM PEPTIDE1{[CCCCCCCCCCCCCC(=O)[*:2]].K.R.R.[am]}$$$$V2.0) | 32 (≈ 47.9 µM) | 128 µg/mL (≈ 192 µM) | 212.08 (±6.12) µg/mL | 64 (≈ 95.8 µM) | 8 (≈ 12 µM) | 8 µg/mL (≈ 12 µM) | 8 µg/mL (≈ 12 µM) | 64 µg/mL (≈ 95.8 µM) |  | 35.66 | 64 (≈ 95.8 µM)
CCCCCCCCCCCCCC(=O)NCC(=O)N[C@@H](CCCNC(=N)N)C(=O)N[C@@H](CCCNC(=N)N)C(N)=O [compound 30, C14-GRR-NH2] | 16 (≈ 26.8 µM) | 256 µg/mL (≈ 429 µM) | 31.94 (±1.99) µg/mL | 32 (≈ 53.6 µM) | 8 (≈ 13.4 µM) | 8 µg/mL (≈ 13.4 µM) | 8 µg/mL (≈ 13.4 µM) | 256 µg/mL (≈ 429 µM) |  | 40.53 | 64 (≈ 107 µM)
CCCCCCCCCCCCCC(=O)N[C@H](C(=O)N[C@@H](CCCNC(=N)N)C(=O)N[C@@H](CCCNC(=N)N)C(N)=O)[C@@H](C)CC [compound 38, C14-IRR-NH2] (HELM PEPTIDE1{[CCCCCCCCCCCCCC(=O)[*:2]].I.R.R.[am]}$$$$V2.0) | 4 (≈ 6.13 µM) | 64 µg/mL (≈ 98 µM) | 78.92 (±4.38) µg/mL | 4 (≈ 6.13 µM) | 4 (≈ 6.13 µM) | 4 µg/mL (≈ 6.13 µM) | 4 µg/mL (≈ 6.13 µM) | 64 µg/mL (≈ 98 µM) | 45.650 | 45.65 | 64 (≈ 98 µM)
CCCCCCCCCCCCCC(=O)N[C@@H](Cc1c[nH]cn1)C(=O)N[C@@H](CCCNC(=N)N)C(=O)N[C@@H](CCCNC(=N)N)C(N)=O [compound 34, C14-HRR-NH2] (HELM PEPTIDE1{[CCCCCCCCCCCCCC(=O)[*:2]].H.R.R.[am]}$$$$V2.0) | 16 (≈ 23.6 µM) | 256 µg/mL (≈ 378 µM) | 50.31 (±0.52) µg/mL | 64 (≈ 94.5 µM) | 16 (≈ 23.6 µM) | 16 µg/mL (≈ 23.6 µM) | 8 µg/mL (≈ 11.8 µM) | 256 µg/mL (≈ 378 µM) |  | 35.80 | 128 (≈ 189 µM)
